# According to the Kinase Knowledgebase extract (Sharma et al. 2016):
# Target: MAPK14 (human) (UniProt Q16539)
# Experiment: Inhibition of MAPK14 Kinase Activity
# MAPK14 (human), sequence (Q16539 whole entry, looked up): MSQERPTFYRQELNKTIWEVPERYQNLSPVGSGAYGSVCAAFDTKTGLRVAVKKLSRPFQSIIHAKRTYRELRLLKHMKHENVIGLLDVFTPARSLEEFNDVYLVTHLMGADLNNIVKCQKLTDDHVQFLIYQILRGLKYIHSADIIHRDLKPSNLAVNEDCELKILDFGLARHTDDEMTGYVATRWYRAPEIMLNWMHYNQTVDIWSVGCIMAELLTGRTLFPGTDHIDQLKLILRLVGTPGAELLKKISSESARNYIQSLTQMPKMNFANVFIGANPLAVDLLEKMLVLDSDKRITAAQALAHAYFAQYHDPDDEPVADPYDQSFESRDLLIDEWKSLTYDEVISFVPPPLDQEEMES
row,Structure (SMILES),IC50 [µM]
1,Fc1ccc(-c2conc2-c2ccncc2)cc1,1.22
2,CN1CCC(O)(c2nc(-c3ccc(F)cc3)c(-c3ccncc3)[nH]2)CC1,0.09
3,CCCCOc1cc(-c2cnoc2-c2ccc(F)cc2)ccn1,21
4,Fc1ccc(-c2oncc2-c2ccnc(OCCc3ccccc3)c2)cc1,34
5,Fc1ccc(-c2nc[nH]c2-c2ccncc2)cc1,0.17
6,CC(C)Oc1cc(-c2cnoc2-c2ccc(F)cc2)ccn1,31
7,CCOc1cc(-c2cnoc2-c2ccc(F)cc2)ccn1,82
8,C[S+]([O-])c1ccc(-c2cc(-c3ccc(F)cc3)c(-c3ccncc3)[nH]2)cc1 (stereo not drawn),1.22
9,COc1cc(-c2cnoc2-c2ccc(F)cc2)ccn1,50
10,CCCCCNc1cc(-c2c(C(C)C)noc2-c2ccc(F)cc2)ccn1,82
11,CC(C)c1noc(-c2ccc(F)cc2)c1-c1ccnc(NCC2CC2)c1,1.3
12,CN1CCC(O)(c2nc(-c3ccc(F)cc3)c(-c3ccncc3)o2)CC1,0.35
13,CC(C)c1noc(-c2ccc(F)cc2)c1-c1ccnc(NC(C)c2ccccc2)c1 (stereo not drawn),0.55
14,CCCNc1cc(-c2c(C(C)C)noc2-c2ccc(F)cc2)ccn1,4
15,Fc1ccc(-c2[nH]c(-c3ccc(Cl)cc3)cc2-c2ccncc2)cc1,0.2
16,Nc1onc(-c2ccncc2)c1-c1ccc(F)cc1,1.61

# More lines, in order of falling IC50, values ahead:
row,IC50 [µM],Structure (SMILES)
1,89,Fc1ccc(-c2oncc2-c2ccnc(Br)c2)cc1
2,56,CCOc1cc(-c2c(C(C)C)noc2-c2ccc(F)cc2)ccn1
3,42,Fc1ccc(-c2oncc2-c2ccnc(Cl)c2)cc1
4,41,Fc1ccc(-c2oncc2-c2ccncc2)cc1
5,2,CC(C)c1noc(-c2ccc(F)cc2)c1-c1ccnc(NC2CC2)c1
6,2,CN1CCC(O)(c2nc(-c3ccncc3)c(-c3ccc(F)cc3)o2)CC1
7,0.63,Fc1ccc(-c2oc(-c3ccc(Cl)cc3)cc2-c2ccncc2)cc1
